Experiments:
[1] = system: P388; test: Cytotoxicity against mouse P388 cells after 48 hrs by tetrazolium-formazan method; format: functional, cell-based; settings: P388, 48 h
[2] = system: A549; test: Cytotoxicity against human A549 cells after 72 hrs by sulforhodamine B dye assay; format: functional, cell-based; settings: A549, 72 h

Row | SMILES | IC50 [1] [nM] | IC50 [2] [nM]
1 | CN(C)CCCN1C(=O)c2cccc3cc4nc(N)sc4c(c23)C1=O | 294 | 21.8
2 | CN(C)CCN1C(=O)c2cccc3c2c(cc2nc(N)sc23)C1=O | 1030 | 500
3 | CN(C)CCN1C(=O)c2cccc3cc4nc(Cl)sc4c(c23)C1=O | 18.5 | 88
4 | CN(C)CCN1C(=O)c2cccc3cc4nc(N)sc4c(c23)C1=O | 5 | 0.8
5 | CN(C)CCCN1C(=O)c2cccc3c2c(cc2nc(N)sc23)C1=O | 1230 | 772
6 | CN(C)CCN1C(=O)c2cccc3cc4ncsc4c(c23)C1=O | 83.9 | 39.8
7 | CN(C)CCN1C(=O)c2cccc3cc4nc(O)sc4c(c23)C1=O | 52.5 | 45
8 | CN(C)CCNc1nc2cc3cccc4c3c(c2s1)C(=O)N(CCN(C)C)C4=O | 8.31 | 30.6

From ChEMBL document CHEMBL1139791, “Highly efficient antitumor agents of heterocycles containing sulfur atom: linear and angular thiazonaphthalimides against human lung cancer cell in vitro” (Bioorg Med Chem, 2007)
